Reference: US12419875B2, “Use of Axitinib and analogs thereof in preparing blood-brain barrier permeability regulator” (ZHEJIANG UNIVERSITY, priority 2018, dated 2025)

Columns and labels:
[1] = test system: pathological blood-brain barrier (bEnd.3 cells co-incubated with U87 MG glioma cells); experiment: Pathological blood-brain barrier Transwell model (bEnd.3 co-incubated with U87 MG), cell transmembrane resistance; assay type: cell-based; conditions: 24 hours
Experimental: A Transwell model of co-incubation of brain microvascular endothelial cells bEnd.3 and glioma cells U87 MG simulates a pathological blood-brain barrier. Axitinib at different concentrations (0, 0.05 μg/mL, 0.1 μg/mL, 0.5 g/mL, 1 μg/mL, 4 μg/mL, 5 μg/mL, 10 μg/mL, 20 μg/mL) was allowed to act on the Transwell chamber. After 24 hours, cell transmembrane resistances were detected by a cell resistance meter. A physiological blood-brain barrier simulated by a Transwell model of brain microvascular endothelial cell bEnd.3 was used as a positive control (n=5).
A Transwell model of co-incubation of brain microvascular endothelial cells bEnd.3 and glioma cells U87 MG simulates a pathological blood-brain barrier. Axitinib (10 μM), an Axitinib analog of phosphatidylinositol kinase (PI3K) inhibitor LY294002 (10 μM), protein kinase B (AKT) agonist SC79 (10 μM) were added into the Transwell chamber. After 24 hours, cell transmembrane resistance was detected by a cell resistance meter. A physiological blood-brain barrier simulated by a Transwell model of brain microvascular endothelial cell bEnd.3 was used as a positive control (n=5).
U87 MG glioma cells were used as brain tumor model cells. 1.5 mL suspension of well-grown U87 MG cell suspension was inoculated in a 12-well plate at a cell density of 2×10^5/well. Incubation was continued at 37° C. and 5% CO2 until the cells adhere. Then, the physiological blood-brain barrier as constructed by Method 1 in the Example 1, i.e., the Transwell chamber with bEnd.3 cells grown, was transferred to the 12-well plate with U87 MG cells grown. Co-culture was further continued for 24 hours to obtain a cell model of pathological blood-brain barrier.
The physiological blood-brain barrier as constructed by Method 2 in the Example 1 was used as a model. Axitinib at different concentrations was added to the Transwell chamber for stimulation.
The physiological blood-brain barrier and the pathological blood-brain barrier as constructed in Method 1 and Method 2 in the Example 1 were used as models, respectively. Axitinib (10 μM), an Axitinib analog of phosphatidylinositol kinase (PI3K) inhibitor LY294002 (10 μM), protein kinase B (AKT) agonist SC79 (10 μM) were added into the Transwell chamber of the pathological blood-brain barrier model as constructed in Method 2 in the Example 1. After 24 hours, the Transwell chamber with bEnd.3 cells grown was transferred to another 12-well plate, washed with PBS for 3 times, and 0.5 mL HBSS nutrient solution was added to the chamber, and the outer chamber was supplemented with 1.5 mL HBSS nutrient solution. The cells were equilibrated at 37° C. for 15 minutes. Cell transmembrane resistance was detected by a cell resistance meter.

U87 MG glioma cells = experiment: Cell survival rate by tetrazolium blue colorimetry, U87 MG cells; assay type: cell-based; conditions: U87MG cells, 10 μM (therapeutic dose); FIGS. 13 and 14
Experimental: FIG. 13: Evaluation of cell survival rate in a Transwell model. A Transwell model of co-incubation of brain microvascular endothelial cells bEnd.3 and glioma cells U87 MG simulates a pathological blood-brain barrier. Axitinib (10 μM) and an Axitinib analog of phosphatidylinositol kinase (PI3K) inhibitor LY294002 (10 μM) were added into the Transwell chamber. After 24 hours, the survival rate of bEnd.3 cells in the Transwell chamber (Panel A) and U87 MG cells in the Transwell outer chamber (Panel B) were detected by tetrazolium blue colorimetry (n=3).
FIG. 14: Evaluation of Cytotoxicity for Axitinib and an analog thereof. […] Cell survival rate was detected by tetrazolium blue colorimetry. […]
The physiological blood-brain barrier and the pathological blood-brain barrier as constructed in Method 1 and Method 2 in the Example 1 were used as models, respectively. […] Absorbance at 570 nm was measured with a microplate reader. The survival rate of cells was calculated according to the following formula: Survival rate of cells (%)=(absorbance value of a test group/absorbance value of a control group)×100%
In addition, bEnd.3 cells and U87 MG glioma cells were used as model cells to evaluate the cytotoxicity of Axitinib and an Axitinib analog of phosphatidylinositol kinase (PI3K) inhibitor LY294002 with the tetrazolium blue colorimetric method. […] Absorbance at 570 nm was measured with a microplate reader.

Claudin-5/Occludin = experiment: Tumor cell culture co-incubated with bEnd.3 cells (U87MG removed), Claudin-5/Occludin immunofluorescence; assay type: cell-based; conditions: tumor cell culture kept, 10 μM, 24 hours, FIG. 17
Experimental: FIG. 17: Co-incubation of a tumor cell culture and bEnd.3 cells in vitro, and immunofluorescent staining of a blood-brain barrier tight junction protein of Claudin-5/Occludin. A Transwell model of co-incubation of brain microvascular endothelial cells bEnd.3 and glioma cells U87 MG simulates a pathological blood-brain barrier. Once a pathological blood-brain barrier model was formed, U87MG glioma cells in the outer chamber of Transwell were removed, while the tumor cell cultures were remained. Axitinib (10 μM) and an Axitinib analog of phosphatidylinositol kinase (PI3K) inhibitor LY294002 (10 μM) were added to the Transwell chamber. After 24 hours, immunofluorescent staining was performed on bEnd.3 cells on the Transwell chamber membrane. A physiological blood-brain barrier simulated by a Transwell model of brain microvascular endothelial cell bEnd.3 was used as a positive control.
The physiological blood-brain barrier and the pathological blood-brain barrier as constructed in Method 1 and Method 2 in the Example 1 were used as models, respectively. Once a pathological blood-brain barrier model was formed, U87MG glioma cells in the outer chamber of Transwell were removed, while the tumor cell cultures were remained. Axitinib (10 μM) and an Axitinib analog of phosphatidylinositol kinase (PI3K) inhibitor LY294002 (10 μM) were added to the Transwell chamber. […]

[2] = test system: pathological blood-brain barrier; experiment: Evans blue permeation into the brain, in situ glioma model; assay type: in vivo, BABL/c nude mice; conditions: glioma nude mice, 10 mg/kg tail vein, Evans blue after 24 hours; vs tumor-bearing control; FIGS. 18 and 19
Experimental: After 24 hours, an Evans blue solution was injected into tail veins at an administration dose of 5 mg/kg.
After 24 hours, an Evans blue solution was injected into tail veins at an administration dose of 5 mg/kg. […] The Evans blue was extracted from the brain tissue with an organic solvent of N,N-dimethylformamide. The result as shown in the figure is the amount of Evans blue permeated into the brain as quantitatively detected by ultraviolet spectrophotometry (n=3).
Male BABL/c nude mice (20±2 g) were used as the model animals. U87-luci glioma cells expressing luciferase were inoculated in the striatum area of nude mice at a concentration of 5×10^5 cells/5 μL by means of a brain stereotaxic instrument (inoculation coordinates, 0.8 mm on the anterior side of bregma, 2 mm on the right side, and 3 mm in depth), to construct an in situ glioma model. […] After 24 hours, an Evans blue solution was injected into tail veins at an administration dose of 5 mg/kg. […] The distribution intensity of Evans blue in the brain tissue was qualitatively observed with a small animal live imaging instrument. The Evans blue was extracted from the brain tissue with an organic solvent of N,N-dimethylformamide. The amount of Evans blue permeated into the brain was quantitatively detected by ultraviolet spectrophotometry.

[3] = test system: pathological blood-brain barrier; experiment: Evans blue permeation into the brain after a single dose, model of Parkinson's disease; assay type: in vivo, C57/BL6 mice; conditions: Parkinson's disease mice, 10 mg/kg tail vein, Evans blue after 24 hours; vs Parkinson's control; FIGS. 24 and 25

CNC(=O)c1ccccc1Sc1ccc2c(/C=C/c3ccccn3)n[nH]c2c1 [Axitinib, N-methyl-2-((3-((1E)-2-(pyridine-2-yl)ethenyl)-1H-indazol-6-yl)sulfanyl)benzamide]
Cell transmembrane resistance (blood-brain barrier function) ([1]; 10 μM, FIG. 10): promote recovery of a blood-brain barrier function from a pathologically impaired state to a state close to a physiological barrier
Concentration at which blood-brain barrier permeability is effectively reduced (cell transmembrane resistance) ([1]; FIG. 9): 0.5˜20 μg/mL
Concentration at which blood-brain barrier permeability is effectively reduced (cell transmembrane resistance) ([1]; FIG. 9, same range in μM): 1.29 to 51.75 µM
Cell transmembrane resistance, dependence on concentration ([1]; Axitinib 0-20 μg/mL, FIG. 9): dose-dependent
Cytotoxicity (U87 MG glioma cells): do not produce significant cytotoxicity
Expression of tight junction protein Claudin-5/Occludin (Claudin-5/Occludin): the degree to which pathological blood-brain barrier tight junction protein of Claudin-5/Occludin is down-regulated is reduced
Amount of Evans blue permeated into the brain [2]: the amount of Evans blue permeated into the brain is reduced
Amount of Evans blue permeated into the brain [3]: the amount of Evans blue permeated into the brain is reduced
